The results in this text go back to patent US20260274839A1, “COMPOUND AND USE THEREOF IN TREATING HUMAN DIHYDROOROTATE DEHYDROGENASE (hDHODH)-MEDIATED DISEASES” (SICHUAN UNIVERSITY, priority 2023, published 2026).

This assay has as its target hDHODH (Homo sapiens, UniProt Q02127). Put plainly: Determination of hDHODH enzymatic inhibitory activity. Format: biochemical. The following applies: compound final concentration 1 μM; purified hDHODH 40 nM; absorbance 600 nm.

hDHODH, sequence (Q02127 whole entry): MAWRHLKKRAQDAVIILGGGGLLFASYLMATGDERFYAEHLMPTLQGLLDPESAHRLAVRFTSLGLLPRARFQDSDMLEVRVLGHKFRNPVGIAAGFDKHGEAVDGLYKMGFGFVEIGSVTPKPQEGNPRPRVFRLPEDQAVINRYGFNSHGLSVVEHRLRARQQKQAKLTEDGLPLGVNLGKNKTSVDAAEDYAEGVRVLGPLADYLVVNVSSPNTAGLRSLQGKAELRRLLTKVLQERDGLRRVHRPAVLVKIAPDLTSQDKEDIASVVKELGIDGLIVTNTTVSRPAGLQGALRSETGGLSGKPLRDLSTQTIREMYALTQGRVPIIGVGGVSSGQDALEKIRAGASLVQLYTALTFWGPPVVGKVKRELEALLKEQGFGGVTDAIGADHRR
Method: Determination of hDHODH Enzymatic Inhibitory Activity of Compounds
Assay buffer preparation: 100 mM HEPES buffer, 150 mM NaCl, 10% glycerol, and 0.1% Triton X-100 were mixed, adjusted to pH-8.0. A resulting mixture was diluted with Milli-Q water, and then stored at 4° C. A total volume of the enzyme activity detection system was 60 μL. The procedure was performed as follows: 1 μL of the small-molecule solution (with a final concentration of 1 μM) was added to a 96-well enzyme plate. 39 μL of a mixture containing the purified hDHODH protein (with a final concentration of 40 nM), 2,6-dichloroindophenol sodium salt (with a final concentration of 100 μM), coenzyme Q (CoQ, with a final concentration of 20 μM) were added thereto. The plate was protected from light and incubated at 37° C. with gentle shaking for 30 min. After the incubation was completed, 20 μL of dihydroorotate (DHO, with a final concentration of 200 μM) was added to each well. Absorbance was immediately measured using a microplate reader having the following procedure: kinetic assay: wavelength: 600 nm, total duration: 10 min, interval: every 20 s. Controls: negative control: Dimethyl sulfoxide (DMSO) (equal volume) without inhibitor; blank control: ultra-pure water (equal volume) without DHO substrate. All assays were conducted in triplicate. […]

`Fc1ccccc1Cn1nc(-c2ccc(C3CC3)cn2)c2cccnc21` [Compound D11] yielded an inhibition at 1 µM of 48.3%.

For orientation: inhibition means the change of the read-out against control, counted positive when it falls. The low end stands for a response near the control, the high end for a response far below the control.
